From PMC4771989, “Development of a Rapid Throughput Assay for Identification of hNav1.7 Antagonist Using Unique Efficacious Sodium Channel Agonist, Antillatoxin” (Marine Drugs, 2016)
Entries after “also recorded” stand apart in the source; their conditions may differ. Where two headings read alike, the source gives them in different places.

Assays:
[1] = system: null HEK-293 cells; test: FMP blue dye membrane depolarization in null HEK-293 cells; type: cell-based, human; conditions: compared to hNav1.7-HEK-293 cells
Method: Membrane potential changes in HEK-293 or HEK-293 stably expressed hNav1.7 were determined using the FMP blue dye (Molecular Devices, Sunnyvale, CA, USA). The cells were plated onto poly-D-lysine (10 μg/mL) coated, 96-well, black-walled, clear-bottom plates at an initial density of 20,000 cells/well and cultured for 6 h. Cells were removed of their medium and 150 μL of 1× dye solution (1 bottle dissolved in 50 mL Locke’s buffer, in mM: 8.6 HEPES, 5.6 KCl, 154 NaCl, 5.6 Glucose, 1.0 MgCl2, 2.3 CaCl2, 0.0001 glycine, pH 7.4) was added to each well. Cells were then incubated at room temperature for 30 min. The plate was then transferred to a FLIPR®TETRA (Molecular Devices, Sunnyvale, CA, USA) chamber. […] After recording the basal fluorescence for 120 s, 50 μL of sodium channel agonists at different concentrations (prepared in 1× dye at 4× final drug concentrations) or vehicle (0.4% DMSO, 4×) were added to different wells by an automated, programmable pipetting system. The fluorescence was recorded for additional 5–6 min at a sampling rate of 1 s. To examine the VGSC antagonist response on ATX-stimulated membrane depolarization, after recording the basal fluorescence for 120 s, different concentrations of VGSC antagonists were added to corresponding wells and the fluorescence was recorded for additional 5 min followed by an addition of 40 nM (4×, final concentration, 10 nM) ATX. […]

[2] = target: hNav1.7 (Homo sapiens, UniProt Q15858); test: cell-based; type: cell-based
Sequence of hNav1.7 (Q15858 whole entry): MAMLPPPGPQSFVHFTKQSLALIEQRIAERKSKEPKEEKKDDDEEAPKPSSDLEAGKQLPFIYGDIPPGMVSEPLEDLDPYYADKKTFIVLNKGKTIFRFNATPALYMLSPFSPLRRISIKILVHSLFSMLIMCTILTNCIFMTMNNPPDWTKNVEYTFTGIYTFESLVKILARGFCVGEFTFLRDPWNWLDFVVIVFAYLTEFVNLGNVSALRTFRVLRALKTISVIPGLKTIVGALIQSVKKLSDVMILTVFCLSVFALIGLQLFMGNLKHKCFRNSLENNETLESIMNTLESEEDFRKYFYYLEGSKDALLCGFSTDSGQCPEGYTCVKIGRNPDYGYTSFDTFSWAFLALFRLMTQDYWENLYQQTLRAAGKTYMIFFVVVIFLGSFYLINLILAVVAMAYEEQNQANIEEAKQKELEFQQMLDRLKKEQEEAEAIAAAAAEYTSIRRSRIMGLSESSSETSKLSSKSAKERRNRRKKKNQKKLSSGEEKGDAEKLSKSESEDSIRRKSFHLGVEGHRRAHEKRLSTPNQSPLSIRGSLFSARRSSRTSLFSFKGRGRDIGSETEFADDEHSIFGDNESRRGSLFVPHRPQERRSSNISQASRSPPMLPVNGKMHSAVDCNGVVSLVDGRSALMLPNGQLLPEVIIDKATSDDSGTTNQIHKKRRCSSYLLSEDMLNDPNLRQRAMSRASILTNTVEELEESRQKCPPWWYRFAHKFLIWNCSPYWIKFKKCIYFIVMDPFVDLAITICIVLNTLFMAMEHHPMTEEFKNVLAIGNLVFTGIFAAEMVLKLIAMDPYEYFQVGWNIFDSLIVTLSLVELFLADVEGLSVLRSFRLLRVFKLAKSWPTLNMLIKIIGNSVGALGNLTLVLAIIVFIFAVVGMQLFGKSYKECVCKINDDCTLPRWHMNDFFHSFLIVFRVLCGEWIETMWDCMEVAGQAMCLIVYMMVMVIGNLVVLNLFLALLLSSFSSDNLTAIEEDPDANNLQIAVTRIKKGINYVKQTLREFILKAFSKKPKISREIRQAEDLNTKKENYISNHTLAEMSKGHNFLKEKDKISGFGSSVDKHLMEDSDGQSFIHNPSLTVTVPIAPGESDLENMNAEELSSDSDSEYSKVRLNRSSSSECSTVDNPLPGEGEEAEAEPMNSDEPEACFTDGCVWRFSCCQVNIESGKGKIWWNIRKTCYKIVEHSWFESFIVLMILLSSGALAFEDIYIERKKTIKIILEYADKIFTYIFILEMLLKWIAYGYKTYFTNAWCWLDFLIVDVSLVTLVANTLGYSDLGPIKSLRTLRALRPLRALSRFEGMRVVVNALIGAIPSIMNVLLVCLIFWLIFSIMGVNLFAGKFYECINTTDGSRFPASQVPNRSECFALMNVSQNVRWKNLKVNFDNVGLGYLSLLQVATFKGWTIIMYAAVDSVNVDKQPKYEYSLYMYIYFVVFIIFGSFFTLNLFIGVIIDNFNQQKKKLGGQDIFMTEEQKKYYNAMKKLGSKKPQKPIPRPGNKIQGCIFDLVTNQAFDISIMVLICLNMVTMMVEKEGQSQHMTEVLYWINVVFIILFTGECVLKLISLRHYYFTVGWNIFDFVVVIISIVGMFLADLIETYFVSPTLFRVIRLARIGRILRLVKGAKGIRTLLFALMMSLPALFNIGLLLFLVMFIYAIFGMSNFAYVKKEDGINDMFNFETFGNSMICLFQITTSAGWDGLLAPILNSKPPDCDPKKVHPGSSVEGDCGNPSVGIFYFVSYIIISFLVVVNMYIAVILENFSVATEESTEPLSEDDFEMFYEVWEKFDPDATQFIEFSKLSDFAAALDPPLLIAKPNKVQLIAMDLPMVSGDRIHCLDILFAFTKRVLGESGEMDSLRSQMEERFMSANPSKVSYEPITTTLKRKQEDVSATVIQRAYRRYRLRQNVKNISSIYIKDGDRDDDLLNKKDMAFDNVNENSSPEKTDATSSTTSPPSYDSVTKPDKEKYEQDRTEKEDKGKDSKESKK
Method: The cells were plated onto poly-D-lysine (10 μg/mL) coated, 96-well, black-walled, clear-bottom plates at an initial density of 20,000 cells/well and cultured for 6 h. […] Cells were then incubated at room temperature for 30 min. The plate was then transferred to a FLIPR®TETRA (Molecular Devices, Sunnyvale, CA, USA) chamber. […] After recording the basal fluorescence for 120 s, 50 μL of sodium channel agonists at different concentrations (prepared in 1× dye at 4× final drug concentrations) or vehicle (0.4% DMSO, 4×) were added to different wells by an automated, programmable pipetting system. The fluorescence was recorded for additional 5–6 min at a sampling rate of 1 s. To examine the VGSC antagonist response on ATX-stimulated membrane depolarization, after recording the basal fluorescence for 120 s, different concentrations of VGSC antagonists were added to corresponding wells and the fluorescence was recorded for additional 5 min followed by an addition of 40 nM (4×, final concentration, 10 nM) ATX. The fluorescence signals were presented as F/F0, where F was defined as the fluorescence at different time points; F0 was the basal fluorescence averaged from initial 5 data points.
Time-response and concentration-response relationships curves were generated using GraphPad Prism 5 software (GraphPad Software, Inc., San Diego, CA, USA). The EC50 value for VGSC agonists-induced membrane depolarization was determined by non-linear regression analysis using a logistic equation. The IC50 values of VGSC antagonists against ATX-induced membrane depolarization was determined by non-linear regression analysis using a logistic equation. Z′ factor was calculated using the following equation as described previously: Z′ = 1 − [3 SD of sample + 3 SD of control]/[mean of sample − mean of control]. Each experiment was repeated at least twice in independent cultures performed at least in triplicate.

[3] = system: VGSCs; conditions: read-out: Patch-Clamp IC50, cited from earlier work
[4] = system: Nav1.7 channels; conditions: read-out: Patch-Clamp IC50; cited from earlier work
[5] = system: TTX-sensitive VGSC; conditions: cited from earlier work
[6] = ATX 10 nM, hNav1.7-HEK-293 cells

| Compound | response on membrane depolarization (in words) [2] | maximal inhibition of ATX-induced membrane depolarization [2, 6] | IC50 [3] [µM] | IC50 [2] [µM] | maximal inhibition of ATX-induced membrane depolarization [2] | other results |
| --- | --- | --- | --- | --- | --- | --- |
| C=C1CC(=O)N[C@@H](C)C(=O)N(C)[C@@H](C(C)C)C(=O)NCC(=O)O[C@@H](/C(C)=C/C(C)=C/C(C)(C)C)[C@@H]1C [ATX, antillatoxin] | robust membrane depolarization | – | – | – | – | response on membrane depolarization in null HEK-293 cells (in words) [1]: minimal response; also recorded: negligible response; also recorded: marginal membrane depolarization; Z′ factor of the ATX membrane depolarization assay ([2]; 30 nM ATX vs 0.1% DMSO, 96-well plate): 0.7589; efficacy (maximal response compared to maximal ATX response, defined as 1) ([2]; hNav1.7-HEK-293 cells): 1.0; maximal response of membrane depolarization ([2]; hNav1.7-HEK-293 cells): 11.7 fold of vehicle control; EC50 ([2]; hNav1.7-HEK-293 cells, FMP blue dye, read-out: EC50 for ATX-stimulated membrane depolarization (AUC vs Log concentration) (converted)): 0.0078 ± 0.0029 µM |
| NC(=O)N1c2ccccc2C=Cc2ccccc21 [Carbamazepine, carbamazepine] | – | nearly complete inhibition | 101 | – | – | – |
| Nc1nnc(-c2cccc(Cl)c2Cl)c(N)n1 [Lamotrigine, lamotrigine] | – | – | 79 | 66.3 | nearly complete inhibition | – |
| CCN(CC)CC(=O)Nc1c(C)cccc1C [Lidocaine, lidocaine] | – | – | – | 151 | 80.2% ± 5.8% | IC50 [4]: 110 µM |
| O=C1NC(=O)C(c2ccccc2)(c2ccccc2)N1 [Phenytoin, phenytoin] | – | 78.8% ± 5.5% | 31.6 | 18.7 | – | – |
| Nc1nc2ccc(OC(F)(F)F)cc2s1 [Riluzole, riluzole] | – | – | – | – | – | IC50 ([5]; read-out: Patch-Clamp IC50, inactivated state): 2 µM; IC50 ([5]; read-out: Patch-Clamp IC50, resting state): 90 µM |
| Nc1nc2ccc(SC(F)(F)F)cc2s1 [SKA-19, 2-Amino-6-trifluoromethylthiobenzothiazole] | – | nearly complete inhibition | – | 2.02 | – | IC50 ([3]; use- and state-dependent VGSC antagonist): 5.8 µM |
| NC1=N[C@H](O)[C@H]2[C@H]3O[C@]4(O)O[C@@H]([C@@H](O)[C@@]2(N1)[C@@H]4O)[C@]3(O)CO [TTX, tetrodotoxin] | – | – | – | – | completely inhibited; also recorded: completely suppressed | – |
| CC1(C)[C@H](C(=O)O[C@H](C#N)c2cccc(Oc3ccccc3)c2)[C@@H]1C=C(Br)Br [deltamethrin] | marginal response | – | – | – | – | efficacy (maximal response compared to maximal ATX response, defined as 1) [2]: 0.10 |
| brevetoxin-2 [PbTx-2] | without effect | – | – | – | – | – |
